Test results published in patent US10119097B2, “Organic compounds” (GIVAUDAN SA, priority 2014, dated 2018).

Legend:
[1] = test system: rat hepatocytes; experiment: in vitro metabolism in rat hepatocytes in suspension, benzoic acid derivative formation by GC-MS; format: in vitro ADME; conditions: incubated with hepatocytes isolated from rats; substantially no = below the limit of detection, i.e. <1%
Description: Decrease of Lilial™ and the compound released by the precursor of the present invention, and formation of the corresponding benzoic acid derivative may be analysed by GC-MS.
By “substantially no benzoic acid derivative” is meant that the concentration of said derivative is below the limit of detection, i.e. <1%. As such, the fragrance precursor releasing 3-(4-isobutyl-2-methylphenyl)propanal provides perfumers with an eminently suitable surrogate for the valuable yet problematic Lilial™.

[2] = test system: guinea-pigs; conditions: guinea pig, in vivo; cited from earlier work
[3] = test system: primates; conditions: cited from earlier work
[4] = test system: mice; conditions: mouse, in vivo; cited from earlier work

SMILES | formation of the corresponding benzoic acid derivative [1] | toxic effects [2] | toxic effects [3] | toxic effects [4]
Cc1cc(CC(C)C)ccc1CCC=O [3-(4-isobutyl-2-methylphenyl)propanal] | forms no, or substantially no, corresponding benzoic acid derivative | – | – | –
CC(C=O)Cc1ccc(C(C)(C)C)cc1 (stereo not shown) [Lilial™, 3-(4-tert-butylphenyl)-2-methylpropanal] | – | No effects were found | No effects were found | No effects were found
